Article PMC4104781 (Journal of controlled release : official journal of the …, 2013)

What was measured:
Spectrometric = format: physicochemical; details: aqueous buffer solutions at various pH, pH 3.5
[1] = format: physicochemical
[2] = TPT lactone-carboxylate interconversion; format: physicochemical; details: 37 °C, aqueous buffers pH 5.92-7.67, fit of kinetic interconversion model
[3] = DSPC/DSPE-PEG2K bilayer, model fit of release profiles
[4] = DSPC/DSPE-PEG2K liposomes, 38.7 ± 0.1 °C, model fit over pH 3.35-7.67

pKa (Spectrometric): 6.56 ± 0.12 | binding to the phospholipid bilayer, anionic carboxylate form (Ca) [1, 3]: negligible binding | binding to the phospholipid bilayer, zwitterionic lactone (Ln) [1, 3]: negligible binding | membrane partition coefficient, lactone species with unionized phenol (Lp) [1, 3]: 61.7 ± 5.9 | bilayer transport of the anionic carboxylate form (Ca) [1, 4]: impermeable | carboxylic acid/lactone equilibrium constant (K0) [2]: 1.98 ± 0.07 × 10^−3
SMILES: CC[C@@]1(O)C(=O)OCc2c1cc1n(c2=O)Cc2cc3c(CN(C)C)c(O)ccc3nc2-1 [TPT, topotecan]
transport rate constant, cationic lactone species (Lp) [1, 4]: 0.51 ± 0.07 h⁻¹ | transport rate constant, ring-opened carboxylate zwitterion (Cn) [1, 4]: 5.7 ± 0.5 h⁻¹ | transport rate constant, zwitterionic lactone (Ln) [1, 4]: 33.9 ± 4.6 h⁻¹ | base-catalyzed ring-closing rate constant (kc,OH) [2]: 7.4 ± 0.3 × 10^8 mol^−1hr^−1
